Data taken from patent publication EP0314239A2, “Tripeptide renin inhibitors with N-terminal ureido or sulfamido groups” (Merck & Co., Inc., priority 1987, dated 1989).

Target: T1, renin (Homo sapiens, UniProt P00797)
T1 sequence (P00797 67-406): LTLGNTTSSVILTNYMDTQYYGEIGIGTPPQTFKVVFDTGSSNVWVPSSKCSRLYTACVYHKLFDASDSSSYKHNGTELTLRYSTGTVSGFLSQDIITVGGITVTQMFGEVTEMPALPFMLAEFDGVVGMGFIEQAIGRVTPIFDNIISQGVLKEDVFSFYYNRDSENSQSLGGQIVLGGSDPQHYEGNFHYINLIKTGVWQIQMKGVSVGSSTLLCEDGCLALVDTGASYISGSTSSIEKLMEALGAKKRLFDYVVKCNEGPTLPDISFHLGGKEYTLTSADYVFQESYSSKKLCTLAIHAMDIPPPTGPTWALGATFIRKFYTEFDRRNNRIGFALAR
Experiment: Renin inhibition IC50, by the methods of J. Med. Chem., 1985, 28, 1789-1790
Assay type: biochemical
Source text: The following examples are intended to be representative and not limiting. ICso results were obtained according to the methods described in J. Med. Chem., 1985, 28, 1789-1790.

IC50 | Structure (SMILES)
5 nM | CC[C@H](C)CNC(=O)C[C@H](O)[C@H](CC1CCCCC1)NC(=O)[C@H](Cc1c[nH]cn1)NC(=O)[C@H](Cc1ccccc1)NC(=O)N1CCOCC1 [Example 4, N-(Morpholin-4-yl)carbonyl-Phenylalanyl-Histidyl-ACHPA-2(S)-Methylbutylamide]
43 nM | CC[C@H](C)CNC(=O)C[C@H](O)[C@H](CC1CCCCC1)NC(=O)[C@H](Cc1c[nH]cn1)NC(=O)[C@H](Cc1ccccc1)NC(=O)N1CCNCC1 [Example 6, N-(Piperazin-1-yl)carbonyl-Phenylalanyl-Histidyl-ACHPA-2(S)-Methylbutylamide]
10 nM | CC[C@H](C)CNC(=O)C[C@H](O)[C@H](CC1CCCCC1)NC(=O)[C@H](Cc1c[nH]cn1)NC(=O)[C@H](Cc1ccccc1)NC(=O)N1CCN(C(=O)OC(C)(C)C)CC1 [Example 5, N-(4-Boc-Piperizinyl)Carbonyl-Phenylalanyl-Histidyl-ACHPA-2(S)Methylbutylamide]

Structure (SMILES) | IC50
C[N+]12CCC(CC1)C(NC(=O)C[C@H](O)[C@H](CC1CCCCC1)NC(=O)[C@H](Cc1c[nH]cn1)NC(=O)[C@H](Cc1ccccc1)NC(=O)N1CCOCC1)C2 (stereo partly drawn) [Example 7, N-(morpholin-4-yl)carbonyl-L-Phenylalanyl-L-Histidyl(3S,4S)-4-Amino-5-Cyclohexyl-3-Hydroxypentanoyl-1-Methylquinuclidinium-3-yl-Amide Acetate] | 29 nM
O=C(C[C@H](O)[C@H](CC1CCCCC1)NC(=O)[C@H](Cc1c[nH]cn1)NC(=O)[C@H](Cc1ccccc1)NC(=O)N1CCOCC1)NC1CN2CCC1CC2 (stereo partly drawn) [N-(morpholin-4-yl)carbonyl-L-Phenylalanyl-L-Histidyl-(3S,4S)-4-amino-5-cyclohexyl-3-hydroxy pentanoyl-3-quinuclidinyl amide] | 30 nM
